According to patent US20080280849A1, “Synergic Combinations Comprising a Quinoline Compound and Other Hiv Infection Therapeutic Agents” (priority 2005, published 2008):
pIC50: −log10 of the molar value. Where two headings read alike, the source gives them in different places.

Test system: NL43 HIV-1 laboratory strain
Assay: NL43 HIV-1 laboratory strain replication assay with HelaCD4+β-Gal indicator cells (P4 cells), CPRG development, CalcuSyn analysis
Assay type: cell-based
Protocol: Synergistic interactions between quinoline compounds (BA011FZ041) and either RT (zidovudine and nevirapine) or other integrase inhibitors (L-731,988) were investigated using a NL43 HIV-1 laboratory strain replication assay. Virus infectivity in the presence of inhibitors was monitored with HelaCD4+β-Gal indicator cells (P4 cells). Inhibition by combination of BA011FZ041 and other inhibitors was evaluated at three fixed molar BA011FZ041/Inhibitor ratios: 1:1, 1:2, and 2:1. Three independent experiments with triplicate data points were performed for each ratio. Interactions were calculated by the multiple drug effect equation of Chou and Talalay (Chou and Talalay, 1983; and Chou and Talalay, 1984) based on the median effect principle, using CalcuSyn® software (Biosoft, UK).
On the day prior to the test, 5,000 HeLaP4 cells per well are seeded in 100 μl of 10% FBS DMEM supplemented with […] penicillin, 100 μg/ml streptomycin and 0.5 mg/ml geniticin (G418). Otherwise, in the morning of the test, 10,000 HeLaP4 cells are seeded per well in 100 μl of 10% FBS DMEM supplemented with […] penicillin, 100 μg/ml streptomycin and 0.5 mg/ml geniticin (G418).
One plate of cells is used for the 2 drugs alone+half a plate per ratio tested is used for development with CPRG and, as necessary, an equivalent number of plates for the MTT toxicity test.
Several drug-drug ratios are tested: 1:1, 1:2, 2:1, 1:4 and 4:1.
Ratios are expressed relative to IC50 values. For the 1:1 ratio, the IC50 concentration for (BA011FZ041+drug X) is the IC50 concentration for BA011FZ041+the IC50 concentration for drug X.
For the 1:2 ratio, the IC50 concentration for (BA011FZ041+drug X) is the IC50 concentration for BA011FZ041+twice the IC50 concentration for drug X.
The form of BA011FZ041 tested is the sodium carbonate salt.
Further dilutions are also performed using PBS and are then distributed at 5 μl per well. • For DMSO: the molecules are resuspended at a concentration 200-fold higher than that finally required in the well so that DMSO be non toxic for the HeLa P4 cells. The quantity of DMSO is constant for each drug concentration tested.
In practice, initial dilutions are performed using DMSO, with these solutions then being rediluted fivefold in PBS or culture medium so as to obtain concentrations 40-fold higher than those finally required in the well. The solutions are then distributed at 5 μl per well.
Prior to infection, the wells are filled up to a final volume of 200 μl with 40 or 45 μl of medium.
NL4.3 viral supernatant has been produced by CaCl2 transfection of 293T cells. The HeLa P4 cells are infected with NL 4.3 HIV virus, with about 1 to 2 ng of P24 per well.
Depending on the P24 content of the virus used, a virus solution+10% FBS DMEM supplemented with […] penicillin, 100 μg/ml streptomycin and 0.5 mg/ml geniticin (G418) is prepared and is then distributed at 50 μl per well.
The plates are incubated at 37° C., 5% CO2, for 60 hours.
The CPRG (chlorophenol red-β-D-galactopyranoside) test is a […] test enabling measurement of the quantity of β-galactosidase produced during viral infection (the β-gal gene is under the control of the TAR element which in turn is controlled by the viral. TAT).
The supernatant is removed from the plates of HelaP4 cells. 100 μl of CPRG lysis buffer is added per well (for 110 wells: Na2HPO4 (0.5M) 1687 μL, NaH2PO4 (1M) 440 μL, KCl (1M) 110 μL, MgSO4 (1M) 220 μL, EDTA (0.5M) 55 μL, β-mercaptoethanol 39 μL, NP40 14 μL, water 8617 μL).
The cells are incubated for 10 minutes at 37° C. in order to obtain full cell lysis. The lysed wells are homogenized and 50 μl of each lysate is transferred into the corresponding well of another plate containing 100 μl reaction buffer (for 110 wells: pH 7.4 phosphate buffer (1M) 880 μL, MgCl2 99 μL, β-mercaptoethanol 77 μL, water 8140 μL, CPRG (250 mg of CPRG dissolved in 9.1 ml of Millipore water+455 μl pH 7.4 sodium phosphate buffer) 1833 μL).

COc1cc(C=Cc2ccc3ccc(C(=O)O)c(O)c3n2)cc(O)c1O [BA011FZ041, 8-hydroxy-2-[2-[(3,4-dihydroxy-5-methoxy-phenyl)ethenyl]]7-quinoline carboxylic acid]
pIC50 (Table 6, Ratio 1:1 series with Nev, drug alone, Mean, read-out: IC50 FZ41, drug alone): 5.80
pIC50 (Table 6, Ratio 1:2 series with Nev, drug alone, Mean, read-out: IC50 FZ4, drug alone): 5.82
pIC50 (Table 6, Ratio 2:1 series with Nev, drug alone, Mean, read-out: IC50 FZ41, drug alone): 5.82
pIC50 (Table 8, Ratio 1:1 series with ZVD, drug alone, Mean, read-out: IC50 FZ41, drug alone): 5.85
pIC50 (Table 8, Ratio 1:2 series with ZVD, drug alone, Mean, read-out: IC50 FZ41, drug alone): 5.77
pIC50 (Table 8, Ratio 2:1 series with ZVD, drug alone, Mean, read-out: IC50 FZ41, drug alone): 5.77
pIC50 (Table 10, Ratio 1:1 series with L-731,988, drug alone, Mean, read-out: IC50 FZ41, drug alone): 5.89
pIC50 (Table 10, Ratio 1:2 series with L-731,988, drug alone, Mean, read-out: IC50 FZ41, drug alone): 5.89
pIC50 (Table 10, Ratio 2:1 series with L-731,988, drug alone, Mean, read-out: IC50 FZ41, drug alone): 5.89
pIC50 (in the mix with L-731,988, Ratio 1:1, Mean, read-out: IC50 FZ41, in the mix): 6.05
pIC50 (in the mix with L-731,988, Ratio 1:2, Mean, read-out: IC50 FZ41, in the mix): 6.10
pIC50 (in the mix with L-731,988, Ratio 2:1, Mean, read-out: IC50 FZ41, in the mix): 5.96
pIC50 (in the mix with Nev, Ratio 1:1, Mean, read-out: IC50 FZ41, in the mix): 5.96
pIC50 (in the mix with Nev, Ratio 1:2, Mean, read-out: IC50 FZ4, in the mix): 6.05
pIC50 (in the mix with Nev, Ratio 2:1, Mean, read-out: IC50 FZ41, in the mix): 5.92
pIC50 (in the mix with ZVD, Ratio 1:1, Mean, read-out: IC50 FZ41, in the mix): 6.10
pIC50 (in the mix with ZVD, Ratio 1:2, Mean, read-out: IC50 FZ41, in the mix): 6.15
pIC50 (in the mix with ZVD, Ratio 2:1, Mean, read-out: IC50 FZ41, in the mix): 5.96

O=C(O)C(=O)CC(=O)c1cccn1Cc1ccc(F)cc1 [L-731,988, 4-[1-(4-fluorobenzyl)pyrrole-2-yl]-2,4-diketobutanoic acid]
pIC50 (Human immunodeficiency virus 1, NL43, Table 10, Ratio 1:1 series, drug alone, Mean, read-out: IC50 L-731,988, drug alone): 5.82
pIC50 (Human immunodeficiency virus 1, NL43, Table 10, Ratio 1:2 series, drug alone, Mean, read-out: IC50 L-731,988, drug alone): 5.82
pIC50 (Human immunodeficiency virus 1, NL43, Table 10, Ratio 2:1 series, drug alone, Mean, read-out: IC50 L-731,988, drug alone): 5.82
pIC50 (Human immunodeficiency virus 1, NL43, in the mix with FZ41, Ratio 1:1, Mean, read-out: IC50 L-731,988, in the mix): 6.52
pIC50 (Human immunodeficiency virus 1, NL43, in the mix with FZ41, Ratio 1:2, Mean, read-out: IC50 L-731,988, in the mix): 6.30
pIC50 (Human immunodeficiency virus 1, NL43, in the mix with FZ41, Ratio 2:1, Mean, read-out: IC50 L-731,988, in the mix): 6.70

Cc1ccnc2c1NC(=O)c1cccnc1N2C1CC1 [Nev]
pIC50 (Human immunodeficiency virus 1, NL43, Table 6, Ratio 1:1 series, drug alone, Mean, read-out: IC50 Nev, drug alone): 7.41
pIC50 (Human immunodeficiency virus 1, NL43, Table 6, Ratio 1:2 series, drug alone, Mean, read-out: IC50 Nev, drug alone): 7.39
pIC50 (Human immunodeficiency virus 1, NL43, Table 6, Ratio 2:1 series, drug alone, Mean, read-out: IC50 Nev, drug alone): 7.41
pIC50 (Human immunodeficiency virus 1, NL43, in the mix with FZ41, Ratio 1:1, Mean, read-out: IC50 Nev, in the mix): 7.96
pIC50 (Human immunodeficiency virus 1, NL43, in the mix with FZ41, Ratio 1:2, Mean, read-out: IC50 Nev, in the mix): 7.74
pIC50 (Human immunodeficiency virus 1, NL43, in the mix with FZ41, Ratio 2:1, Mean, read-out: IC50 Nev, in the mix): 8.20

Cc1cn([C@H]2C[C@H](N=[N+]=[N-])[C@@H](CO)O2)c(=O)[nH]c1=O [ZVD, 3′-azido-3′-deoxythymidine]
pIC50 (Human immunodeficiency virus 1, NL43, Table 8, Ratio 1:1 series, drug alone, Mean, read-out: IC50 ZVD, drug alone): 7.54
pIC50 (Human immunodeficiency virus 1, NL43, Table 8, Ratio 1:2 series, drug alone, Mean, read-out: IC50 ZVD, drug alone): 7.34
pIC50 (Human immunodeficiency virus 1, NL43, Table 8, Ratio 2:1 series, drug alone, Mean, read-out: IC50 ZVD, drug alone): 7.36
pIC50 (Human immunodeficiency virus 1, NL43, in the mix with FZ41, Ratio 1:1, Mean, read-out: IC50 ZVD, in the mix): 7.80
pIC50 (Human immunodeficiency virus 1, NL43, in the mix with FZ41, Ratio 1:2, Mean, read-out: IC50 ZVD, in the mix): 7.55
pIC50 (Human immunodeficiency virus 1, NL43, in the mix with FZ41, Ratio 2:1, Mean, read-out: IC50 ZVD, in the mix): 7.96
